Experimental data from article PMC10746543, “Design principles for cyclin K molecular glue degraders” (Nature Chemical Biology, 2023).
Values joined by “and” are separate entries in the source; they are usually repeats but may differ in a detail not shown here. Equal values may be shown once. Read-outs that look alike come from different tables or passages of the source.

Tests used:
[1] = target: T1, CDK9–cyclin T (Homo sapiens, UniProt P50750); assay: Lanthascreen kinase binding assay, CDK9; details: for Lanthascreen TR-FRET signal (raw ratio), sheet CDK9: duplicates
T1 construct: purchased Thermo Fisher
Method: (§1) Lanthascreen experiments were performed using commercially available reagents (Thermo Fisher) and according to the manufacturer’s instructions.

[2] = tested on: cyclin K–eGFP degradation reporter; assay: Cyclin K reporter stability analysis (dual-color cyclin K–eGFP reporter); assay type: cell-based, human; details: source data sheet correlations; read-out: DC50
How it was run: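 Readout was the eGFP-to-mCherry geometric-mean ratio by flow cytometry, normalized to three DMSO controls, after 5 h drug exposure. Cells used were HEK293T–Cas9 expressing the dual-colour cyclin K–eGFP degradation reporter.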

[3] = target: T2, CDK2–cyclin A (Homo sapiens, UniProt P24941); assay: Lanthascreen kinase binding assay, CDK2; details: for Lanthascreen signal, sheet CDK2: raw replicates
T2 construct: purchased Thermo Fisher
Method: as §1

T1 sequence (P50750 whole entry): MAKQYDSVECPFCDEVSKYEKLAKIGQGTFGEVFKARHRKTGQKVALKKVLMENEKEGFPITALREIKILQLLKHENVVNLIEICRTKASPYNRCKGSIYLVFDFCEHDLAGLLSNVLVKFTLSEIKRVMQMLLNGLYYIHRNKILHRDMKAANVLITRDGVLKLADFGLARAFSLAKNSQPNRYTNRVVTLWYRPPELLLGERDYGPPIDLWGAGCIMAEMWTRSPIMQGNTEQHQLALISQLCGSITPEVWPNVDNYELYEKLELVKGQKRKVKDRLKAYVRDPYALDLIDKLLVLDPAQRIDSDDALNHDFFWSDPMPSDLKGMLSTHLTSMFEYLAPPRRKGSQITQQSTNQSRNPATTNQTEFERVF
T1 sequence (O60563 whole entry partner): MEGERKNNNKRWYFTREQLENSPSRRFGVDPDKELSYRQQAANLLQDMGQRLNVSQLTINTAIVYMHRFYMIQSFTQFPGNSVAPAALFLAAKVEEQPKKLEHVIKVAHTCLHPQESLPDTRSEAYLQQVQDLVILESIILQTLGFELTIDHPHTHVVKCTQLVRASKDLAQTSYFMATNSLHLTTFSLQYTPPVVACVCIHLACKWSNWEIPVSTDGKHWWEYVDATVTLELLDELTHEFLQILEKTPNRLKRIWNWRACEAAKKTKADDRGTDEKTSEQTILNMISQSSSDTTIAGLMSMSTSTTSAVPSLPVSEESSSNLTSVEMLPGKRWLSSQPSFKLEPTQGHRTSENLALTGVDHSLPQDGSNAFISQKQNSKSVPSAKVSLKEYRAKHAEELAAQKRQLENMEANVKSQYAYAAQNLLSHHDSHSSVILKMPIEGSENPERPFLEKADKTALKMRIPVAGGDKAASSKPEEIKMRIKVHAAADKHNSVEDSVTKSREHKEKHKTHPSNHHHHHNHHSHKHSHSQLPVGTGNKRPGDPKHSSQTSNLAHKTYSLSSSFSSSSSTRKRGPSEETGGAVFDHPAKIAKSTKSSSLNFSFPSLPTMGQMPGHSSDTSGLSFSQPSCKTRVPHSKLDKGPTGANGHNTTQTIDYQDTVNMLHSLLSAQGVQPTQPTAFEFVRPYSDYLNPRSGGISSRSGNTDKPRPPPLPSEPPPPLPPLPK

Cc1ccc(C(=O)N2CSCC2C(=O)Nc2ncc(C)s2)o1 (centres unmarked) [dCeMM4]
IC50 ([1]; Supplementary Table 2, read-out: Lanthascreen IC50 [nM] CDK9): 2460 nM | Lanthascreen TR-FRET signal (raw ratio), sheet CDK9 ([1]; compound 0.038147 nM, second titration set (r13)): 0.01401 and 0.01443 | Lanthascreen TR-FRET signal (raw ratio), sheet CDK9 ([1]; compound 0.152588 nM, second titration set (r13)): 0.01297 and 0.01342 | Lanthascreen TR-FRET signal (raw ratio), sheet CDK9 ([1]; compound 0.610352 nM, second titration set (r13)): 0.01434 and 0.01401 | Lanthascreen TR-FRET signal (raw ratio), sheet CDK9 ([1]; compound 1.02544 nM, first titration set (r1)): 0.01509 and 0.01456 | Lanthascreen TR-FRET signal (raw ratio), sheet CDK9 ([1]; compound 3.15521 nM, first titration set (r1)): 0.01409 and 0.01238 | Lanthascreen TR-FRET signal (raw ratio), sheet CDK9 ([1]; compound 9.46563 nM, first titration set (r1)): 0.01419 and 0.01391 | Lanthascreen TR-FRET signal (raw ratio), sheet CDK9 ([1]; compound 9.76563 nM, second titration set (r13)): 0.01424 and 0.01466 | Lanthascreen TR-FRET signal (raw ratio), sheet CDK9 ([1]; compound 31.5521 nM, first titration set (r1)): 0.01363 and 0.01274 | Lanthascreen TR-FRET signal (raw ratio), sheet CDK9 ([1]; compound 39.0625 nM, second titration set (r13)): 0.01378 and 0.01422 | Lanthascreen TR-FRET signal (raw ratio), sheet CDK9 ([1]; compound 99.3891 nM, first titration set (r1)): 0.01334 and 0.01404 | Lanthascreen TR-FRET signal (raw ratio), sheet CDK9 ([1]; compound 156.25 nM, second titration set (r13)): 0.01404 and 0.01353 | Lanthascreen TR-FRET signal (raw ratio), sheet CDK9 ([1]; compound 315.521 nM, first titration set (r1)): 0.01521 and 0.01465 | Lanthascreen TR-FRET signal (raw ratio), sheet CDK9 ([1]; compound 625 nM, second titration set (r13)): 0.01264 and 0.01274 | Lanthascreen TR-FRET signal (raw ratio), sheet CDK9 ([1]; compound 2500 nM, second titration set (r13)): 0.01019 and 0.009296 | Lanthascreen TR-FRET signal (raw ratio), sheet CDK9 ([1]; compound 3155.21 nM, first titration set (r1)): 0.008036 and 0.01025 | Lanthascreen TR-FRET signal (raw ratio), sheet CDK9 ([1]; compound 10000 nM, second titration set (r13)): 0.006352 and 0.006436 | Lanthascreen TR-FRET signal (raw ratio), sheet CDK9 ([1]; compound 10002 nM, first titration set (r1)): 0.007034 and 0.007071 | DC50 [2]: 1210 nM | Lanthascreen signal, sheet CDK2 ([3]; Compound 0.038147 nM, experiment r13-r23): 0.01291 and 0.01309 | Lanthascreen signal, sheet CDK2 ([3]; Compound 0.038147 nM, experiment r48-r58): 0.01261 and 0.01224 | Lanthascreen signal, sheet CDK2 ([3]; Compound 0.152588 nM, experiment r13-r23): 0.01309 and 0.01357 | Lanthascreen signal, sheet CDK2 ([3]; Compound 0.152588 nM, experiment r48-r58): 0.01492 and 0.0157 | Lanthascreen signal, sheet CDK2 ([3]; Compound 0.610352 nM, experiment r13-r23): 0.01337 and 0.01331 | Lanthascreen signal, sheet CDK2 ([3]; Compound 0.610352 nM, experiment r48-r58): 0.01553 and 0.01443 | Lanthascreen signal, sheet CDK2 ([3]; Compound 1.02544 nM, experiment r1-r11): 0.008871 and 0.008854 | Lanthascreen signal, sheet CDK2 ([3]; Compound 3.15521 nM, experiment r1-r11): 0.01028 and 0.01056 | Lanthascreen signal, sheet CDK2 ([3]; Compound 9.46563 nM, experiment r1-r11): 0.01086 and 0.009918 | Lanthascreen signal, sheet CDK2 ([3]; Compound 9.76563 nM, experiment r13-r23): 0.01301 and 0.01353 | Lanthascreen signal, sheet CDK2 ([3]; Compound 9.76563 nM, experiment r48-r58): 0.01491 and 0.01554 | Lanthascreen signal, sheet CDK2 ([3]; Compound 31.5521 nM, experiment r1-r11): 0.008252 and 0.009758 | Lanthascreen signal, sheet CDK2 ([3]; Compound 39.0625 nM, experiment r13-r23): 0.01344 and 0.01357 | Lanthascreen signal, sheet CDK2 ([3]; Compound 39.0625 nM, experiment r48-r58): 0.01615 and 0.01531 | Lanthascreen signal, sheet CDK2 ([3]; Compound 99.3891 nM, experiment r1-r11): 0.01148 and 0.009734 | Lanthascreen signal, sheet CDK2 ([3]; Compound 156.25 nM, experiment r13-r23): 0.01338 and 0.01316 | Lanthascreen signal, sheet CDK2 ([3]; Compound 156.25 nM, experiment r48-r58): 0.01495 and 0.01468 | Lanthascreen signal, sheet CDK2 ([3]; Compound 315.521 nM, experiment r1-r11): 0.01013 and 0.01019 | Lanthascreen signal, sheet CDK2 ([3]; Compound 625 nM, experiment r13-r23): 0.01286 and 0.01329 | Lanthascreen signal, sheet CDK2 ([3]; Compound 625 nM, experiment r48-r58): 0.01515 and 0.01544 | Lanthascreen signal, sheet CDK2 ([3]; Compound 2500 nM, experiment r13-r23): 0.01297 and 0.01246 | Lanthascreen signal, sheet CDK2 ([3]; Compound 2500 nM, experiment r48-r58): 0.0142 and 0.01439 | Lanthascreen signal, sheet CDK2 ([3]; Compound 3155.21 nM, experiment r1-r11): 0.01019 and 0.009543 | Lanthascreen signal, sheet CDK2 ([3]; Compound 10000 nM, experiment r13-r23): 0.01011 and 0.01128 | Lanthascreen signal, sheet CDK2 ([3]; Compound 10000 nM, experiment r48-r58): 0.01389 and 0.01345 | Lanthascreen signal, sheet CDK2 ([3]; Compound 10002 nM, experiment r1-r11): 0.009534 and 0.01103 | IC50 ([3]; Lanthascreen, average, Extended Data Fig. 8, read-out: CDK2 IC50): > 10000 nM | IC50 ([3]; Supplementary Table 2, read-out: Lanthascreen IC50 [nM] CDK2): > 10000 nM
